From EPA's ToxValDB 9.5

What was measured:
[1] = tested on: Canidae; conditions: oral, diet, M/F, Dog Other
[2] = tested on: Rattus norvegicus; conditions: repeat dose other; oral
[3] = tested on: Rattus norvegicus
[4] = tested on: Rattus norvegicus; conditions: oral, gavage
[5] = tested on: Rattus norvegicus; remark: listed apart in the source
[6] = tested on: Rattus norvegicus; conditions: oral
[7] = tested on: Rattus norvegicus; conditions: duration: 2 years, oral
[8] = tested on: Rattus norvegicus; conditions: Hershberger; duration: 10 days; oral; gavage; Sprague-Dawley; anti-androgenic + no effect on PPS, AST or thyroid / decreasing trend significant for LABC
[9] = subchronic, duration: 90 days, sedation and tonoclonic spasms reduced food intake and body weight hematological effects
[10] = short-term, duration: 28 days, M, Sprague-Dawley, Clinical Observation: Spontaneous locomotion decrease, Respiratory rate decrease, Incomplete eyelid opening SalivationLacrimation Stool …
[11] = subchronic, M, increased liver-to-body weight ratio and hepatic microsomal enzyme induction
[12] = subchronic, M/F, hypoactivity and ataxia
[13] = subchronic, M/F, increased liver weight and centrilobular hypertrophy
[14] = reproduction developmental, M/F, reduced mean body weight
[15] = short-term, duration: 28 days, M, Sprague-Dawley, Clinical Observation: Locomotor activity decrease, Salivation + Functional Observational Battery: Locomotor activity decrease, Salivation + …
[16] = chronic, duration: 2 years, diet, M/F, increased kidney body weight ratio
[17] = chronic, duration: 2 years, liver toxicity
[18] = reproduction developmental, M/F, degenerative cardiomyopathy

C[N+]1(C)CCCCC1.[Cl-] [1,1-Dimethylpiperidinium chloride]
LEL [1, 9]: 75 mg/kg-day
NOEL [1, 9]: 25 mg/kg-day

Clc1cc2oc3cc(Cl)c(Cl)c(Cl)c3c2cc1Cl [1,2,3,7,8-Pentachlorodibenzofuran]
LOAEL [2]: 0.0016 mg/kg-day
NOAEL [2]: 0.00016 mg/kg-day

ClCC(Cl)CCl [1,2,3-Trichloropropane]
NOAEL ([3]; short-term, duration: 11 days, inhalation, M/F, Fischer 344, respiratory): 6.03 mg/m3
NOEL ([4]; chronic, duration: 17 weeks, M/F, Fischer 344, Deaths + Body Weight Changes: decrease + Hematology: Hct decrease, RBC decrease, Hgb decrease + Blood Chemistry: Na decrease, Alb increase, …): < 8 mg/kg-day
NOAEL [4, 10]: < 15 mg/kg-day
NOEL [4, 10]: < 15 mg/kg-day
NOAEL ([5]; chronic, duration: 120 days, oral, Blood: Decreased hematocrit + Blood: Decreased hemoglobin + Erythrocytes: Decreased count + Kidney: Lesions + Liver: Lesions + Whole body: …): 8 mg/kg-day

Brc1ccc(Br)c(Br)c1 [1,2,4-Tribromobenzene]
LOAEL [6, 11]: 10 mg/kg-day
NOAEL [6, 11]: 5 mg/kg-day
NOAEL ([5]; subchronic, duration: 45 days, oral, diet, Liver: Altered weight + Liver: Enzyme induction): 5 mg/kg-day

C1=CCC=C1 [1,3-Cyclopentadiene]
NOEL ([5]; chronic, duration: 194 days, inhalation, intermittent, Kidney: Lesions + Liver: Lesions): 87.3 mg/kg-day

CCCCO [1-Butanol]
LOAEL [6, 12]: 500 mg/kg-day
NOAEL [6, 12]: 125 mg/kg-day
NOAEL ([5]; subchronic, duration: 13 weeks, oral, gavage, Central nervous system: Ataxia + Central nervous system: Hypoactivity): 125 mg/kg-day

Oc1c(Cl)cc(Cl)c(Cl)c1Cl [2,3,4,6-Tetrachlorophenol]
LOAEL [6, 13]: 100 mg/kg-day
NOAEL [6, 13]: 25 mg/kg-day
NOAEL ([5]; subchronic, duration: 90 days, oral, gavage, Liver: Centrilobular hypertrophy + Liver: Increased weight): 25 mg/kg-day

N#CSCSc1nc2ccccc2s1 [2-(Thiocyanomethylthio)benzothiazole]
NOEL ([5]; subchronic, oral, diet, Stomach: Lesions): 25 mg/kg-day

O=C=Nc1ccc(Cc2ccc(N=C=O)cc2)cc1 [4,4'-Diphenylmethane diisocyanate]
NOAEL ([5]; chronic, duration: 24 months, inhalation, intermittent, Nasal cavity: Lesions): 0.2 mg/m3

COc1cc2c(c3oc(=O)c4c(c13)CCC4=O)[C@]1(O)C=CO[C@@H]1O2 [Aflatoxin M1]
NOEL ([7]; chronic, diet, M, Fischer 344, Carcinogenicity): 0.1 mg

[O]=[Sb][O][Sb](=[O])=[O] [Antimony oxide (Sb2O4)]
LOAEL ([5]; chronic, oral, drinking water, Blood: Altered chemistries + Whole body: Increased mortality): 0.44 mg/kg-day

FB(F)F [Boron trifluoride]
NOAEL ([5]; subchronic, duration: 13 weeks, inhalation, intermittent, Kidney: Necrosis): 6 mg/m3

O=C1C2CC=CCC2C(=O)N1SC(Cl)(Cl)Cl (configuration not stated) [Captan]
LEL [6, 14]: 25 mg/kg-day
NOEL [6, 14]: 12.5 mg/kg-day
NOEL ([5]; subchronic, oral, diet, Whole body: Decreased weight): 12.5 mg/kg-day

ClC(Cl)(Cl)Cl [Carbon tetrachloride]
NOAEL ([3]; chronic, duration: 104 weeks, inhalation, whole body, M/F, Fischer 344, hepatic): 31.5 mg/m3
NOAEL ([3]; chronic, duration: 205 days, inhalation, M/F, Wistar, hepatic): 31.5 mg/m3
LOAEL ([3]; short-term, duration: 10 days, oral, gavage, M, Fischer 344, hepatic): 5 mg/kg-day
NOAEL ([3]; subchronic, duration: 12 weeks, oral, gavage, M, Sprague-Dawley, hepatic): 1 mg/kg-day
NOAEL [4, 15]: < 20 mg/kg-day
NOEL [4, 15]: < 20 mg/kg-day
NOAEL [2]: 16 mg/kg-day

Cc1cc(C(C#N)c2ccc(Cl)cc2)c(Cl)cc1NC(=O)c1cc(I)cc(I)c1O (configuration not stated) [Closantel]
NOEL ([7]; chronic, diet, M/F, Wistar, Increased incidences of sperm granulomas in the epididymes of male rats): 2.5 mg/kg-day
NOEL ([7]; dietary / carcinogenicity, feed, M/F, Wistar, Increased incidences of sperm granulomas in the epididymes of male rats): 2.5 mg/kg-day

NC1CCCCC1 [Cyclohexylamine]
LOAEL ([6]; chronic, M, testicular damage): 60 mg/kg-day
NOAEL ([6]; chronic, M, testicular damage): 18 mg/kg-day
NOAEL ([5]; subchronic, duration: 90 days, oral, diet, Testis: Decreased weight + Whole body: Decreased weight gain): 30 mg/kg-day

CC(Cl)(Cl)C(=O)O [Dalapon]
LEL [6, 16]: 28.2 mg/kg-day
NOEL [6, 16]: 8.45 mg/kg-day
NOEL ([5]; chronic, duration: 2 years, oral, diet, Kidney: Increased relative weight): 8.45 mg/kg-day

CCOP(=S)(OCC)Oc1cc(C)nc(C(C)C)n1 [Diazinon]
NOAEL ([3]; chronic, duration: 98 weeks, oral, diet, M/F, Sprague-Dawley, neurological): 0.065 mg/kg-day
NOAEL ([3]; chronic, duration: 92 days, oral, diet, F, Wistar, neurological): 0.6 mg/kg-day
NOAEL ([3]; short-term, duration: 3 weeks, inhalation, nose only, M/F, albino, neurological): 1.57 mg/m3
NOAEL ([5]; subchronic, duration: 42 days, oral, diet, Blood: Decreased cholinesterase activity): 0.09 mg/kg-day

CN(C)C(=O)C(c1ccccc1)c1ccccc1 [Diphenamid]
LEL [1, 17]: 10 mg/kg-day
NOEL [1, 17]: 3 mg/kg-day

CCCN(CCC)C(=O)SCC [EPTC]
NOEL [8]: 125 mg/kg-day
LEL [6, 18]: 10 mg/kg-day
NOEL [6, 18]: 2.5 mg/kg-day
NOEL ([5]; reproduction developmental, oral, diet, Heart: Degenerative cardiomyopathy): 2.5 mg/kg-day
